Laboratory results from patent publication US20220015355A1, “NOVEL CARRIER FLUIDS FOR LIQUID FUNGAL SPORE FORMULATIONS” (priority 2018, published 2022).
Read-outs that look alike come from different tables or passages of the source.

Columns and labels:
[1] = tested on: Isaria fumosorosea spores; test: spore viability of Isaria fumosorosea spores in carrier fluid after storage, Method 2 (flow cytometry); format: cell-based
Procedure: Method 2: 0.5 g of Isaria fumosoresea pure spore powder were transferred into an Erlenmeyer flask using a sterile spoon. 24.5 mL of fluid were dispersed using Ultra-Turrax (IKA; Type T 25 D) for 1 min at 3,000 rpm. After this, 2.0 mL were transferred in 20 sample bottles (Wheaton Serum vial, Type I) leaving little headspace and closed tight using crimpneck caps (Macherey—Nagel type N 13). Afterwards all sample bottles were transferred to an incubator set at 30° C. and stored for a given time.
In regular intervals a sample was retrieved from the storage location and analyzed for spore viability. For this purpose, the original samples were thoroughly homogenized. Aliquots of 0.5 g of each sample were transferred into 100 mL-Erlenmeyer flask. The flasks were filled up to 50 g using a sterile aqueous solution containing 0.1% Break Thru® 5240 (Evonik, Industries) and homogenized on a magnetic stirrer (Thermo Fisher Scientific: Cimarec™) at least for 15 min with 750 rpm to achieve the first dilution step (1:100 dilution). This dilution was used for further dilution.
Not all samples mixed well or mixed at all in 0.1% Break Thru 5240. For these samples, 500 μL Neo-wett (Kwizda Agro GmbH) and/or a small amount (knife tip) Metaupon®-OMT (LEUNA Tenside GmbH) were also added to the aqueous solution.
After homogenization 1 mL were transferred into a 1.5 mL tube and were centrifuged for 15 min at 14,000 rpm (Thermo Fisher Scientific, Type Megafuge 8R). The supernatant (=upper phase) was discarded by using a pipette. The tubes were filled up to 1 mL using a sterile aqueous solution containing 0.1% Neo-wett and homogenized by vortexing.
To assess fungal viability, a method based on flow cytometry was used.

[2] = tested on: Isaria fumosorosea spores; test: spore viability of Isaria fumosorosea spores in carrier fluid after storage at 30° C., Method 1 (germination on agar); format: cell-based
Procedure: (§1) Method 1: 1.5 g of Isaria fumosorosea pure spore powder were transferred into a formulation vessel (IKA Type DT-20 mixing vessel with dispersion tool for Ultra Turrax) using a sterile spoon. 13.5 mL of fluid were added into the respective formulation vessel and dispersed using ultra turrax tube drive control for 1 min at 3000 rpm; change direction after 30 sec. After this 2.8 mL were transferred in four sample bottles (Wheaton Serum vial, Type I) leaving little headspace and closed tight using crimpneck caps (Macherey—Nagel type N 13) Afterwards all sample bottles were transferred to an incubator set at 30° C. and stored for a given time.
(§2) In regular intervals a sample was retrieved from the storage location and analyzed for spore viability. Therefore the original samples were thoroughly homogenized. Aliquots of 0.25 g or […] of each sample are transferred into 50 mL falcon tubes. The tubes were filled up to 25 g using a sterile aqueous solution containing 2% Tween 80 and homogenized by vortexing to achieve the first dilution step (1:100 dilution). This dilution is used for further dilution and spotting on agar.
For evaluation of spore germination rate a 1:15000 dilution based on the 1:100 dilution achieved by multiple automated dilution (pipetting robot, 96 well plate) was prepared. Afterwards 12×12 cm agar plates were taken and spotted with 10 times 5 μL of each sample using an automated 12-Channel pipet. After all liquid is soaked up by agar the agar plates were incubated at 23° C. for 16 hours.

[3] = tested on: Penicillium bilaii (ATCC 20851) spores; test: spore viability (germination rate on agar) of Penicillium bilaii spores in carrier fluid after storage at 30° C.; format: cell-based
Procedure: as §1, with “1.5” for “Method 1: 1.5”, “Penicillium bilaii (ATCC 20851)” for “Isaria fumosorosea”
as §2
(§3) For evaluation of spore germination rate prepare a 1:15000 dilution based on the 1:100 dilution achieved by multiple automated dilution (pipetting robot, 96 well plate). Afterwards 12×12 cm agar plates are taken and spotted with 10 times […] of each sample using an automated 12-Channel pipet. Wait until liquid is soaked up by agar and transfer agar plate to an incubator and incubate at 20° C. for 17 hours. Open the plate and place it under the microscope. Randomly choose one area per spot and record the number of germinated and non-germinated spores that are within the designated field. At least 200 spores per sample need to be evaluated. If needed count more than one field per spot.

[4] = tested on: Beauveria Bassiana spores; test: spore viability (germination rate on agar) of Beauveria bassiana spores in carrier fluid after storage at 30° C.; format: cell-based
Procedure: as §1, with “1.5” for “Method 1: 1.5”, “Beauveria Bassiana” for “Isaria fumosorosea”
as §2, §3

[5] = tested on: P. lilacinum strain 251 spores; test: spore viability (germination rate on agar) of P. lilacinum spores in carrier fluid after storage at 30° C.; format: cell-based, Purpureocillium lilacinum
Procedure: as §1, with “3” for “Method 1: 1.5”, “P. lilacinum strain 251” for “Isaria fumosorosea”, “12” for “13.5”
as §2
as §3, with “1:30000” for “1:15000”, “25°” for “20°”

COC(C)COC(C)COC(C)CO (centres unmarked) [Dowanol TPM, Tripropylene Glycol monomethyl ether]
spore viability [%] at day 1 ([1]; I. fumosorosea, Method 2, day 1): 82.0%
spore viability [%] after 1 m (27 d) ([1]; Method 2, storage at 30° C., 27 d): 59.0%
spore viability [%] at day 1 ([2]; I. fumosorosea, Method 1, day 1): 88.0%
spore viability [%] after 1 m (27 d) ([2]; Method 1, storage at 30° C., 27 d): 65.4%
spore viability [%] after 7 m (210 d) ([2]; Method 1, storage at 30° C., 210 d): 52.6%
spore viability [%] initial (1-2 d) ([3]; Penicillium bilaii, 1-2 d): 67.2%
spore viability [%] 6 w@30° C. (41-43 d) ([3]; storage at 30° C., 41-43 d): 7.6%
spore viability [%] 3 m@30° C. (83-85 d) ([3]; storage at 30° C., 83-85 d): 2.8%
spore viability [%] at day 1 ([4]; Beauveria bassiana, day 1): 63.9%
spore viability [%] after 2 w (14 d) ([4]; storage at 30° C., 14 d): 19.0%
spore viability [%] after 5 w (35 d) ([4]; storage at 30° C., 35 d): 15.5%
spore viability [%] at day 1 ([5]; P. lilacinum strain 251 in the liquid, day 1): 85.4%
spore viability [%] after 2 w (12-15 d) ([5]; storage at 30° C., 12-15 d): 94.3%
spore viability [%] after 1 m (27-28 d) ([5]; storage at 30° C., 27-28 d): 95.6%
spore viability [%] after 2 m (51-55 d) ([5]; storage at 30° C., 51-55 d): 84.5%

Polyethyleneglycol-400 dioleate [Radiasurf 7442]
spore viability [%] after 1 m (27 d) [1]: 66.3%
spore viability [%] after 2 w (~14 d) [1]: 69.6%
spore viability [%] at day 1 [1]: 87.4%
spore viability [%] after 1 m (27 d) [2]: 72.1%
spore viability [%] at day 1 [2]: 89.4%
spore viability [%] 3 m@30° C. (83-85 d) [3]: 76.5%
spore viability [%] 6 w@30° C. (41-43 d) [3]: 91%
spore viability [%] initial (1-2 d) [3]: 96.7%
spore viability [%] after 3 w (21 d) [4]: 33.2%
spore viability [%] at day 1 [4]: 85.9%
spore viability [%] after 1 m (27-28 d) [5]: 98.2%
spore viability [%] after 2 m (51-55 d) [5]: 96.8%
spore viability [%] after 2 w (12-15 d) [5]: 96.5%
spore viability [%] after 7 m (210 d) [5]: 88.3%
spore viability [%] at day 1 [5]: 98.7%

Polyethyleneglycol-400 monooleate [Radiasurf 7403]
spore viability [%] after 1 m (27 d) [1]: 92.0%
spore viability [%] after 2 w (~14 d) [1]: 86.0%
spore viability [%] at day 1 [1]: 89.0%
spore viability [%] after 1 m (27 d) [2]: 76.2%
spore viability [%] at day 1 [2]: 94.0%
spore viability [%] 3 m@30° C. (83-85 d) [3]: 61.8%
spore viability [%] 6 w@30° C. (41-43 d) [3]: 66.8%
spore viability [%] initial (1-2 d) [3]: 78.1%
spore viability [%] after 2 w (14 d) [4]: 77.3%
spore viability [%] after 5 w (35 d) [4]: 72.3%
spore viability [%] at day 1 [4]: 81.4%
spore viability after storage for 3w or longer at 30° C. [4]: ≥ 50%
spore viability [%] after 1 m (27-28 d) [5]: 98.9%
spore viability [%] after 2 m (51-55 d) [5]: 93.7%
spore viability [%] after 2 w (12-15 d) [5]: 98.3%
spore viability [%] after 7 m (210 d) [5]: 78.3%
spore viability [%] at day 1 [5]: 98.6%
